What was measured:
[1] = tested on: Friend-Leukämie-Virus; test: Friend leukaemia virus (FLV) infection in the mouse, oral application via drinking water (Tabelle II); format: in vivo, Maus; settings: for n* Anzahl überlebende Mäuse / Hg: oral; for Hg: haemoglobin content of blood
Text: Blockierung der Reverse Transkriptase-(RT)-Aktivität untersucht wird, erscheint die Wahl eines solchen Ersatzmodelles gerechtfertigt. Im vorliegenden Fall wurde die Infektion der Maus mit dem Friend-Leukämie-Virus gewählt. Dazu wurden normale Labormäuse (NMRI = Naval Medical Research Institute) durch intravenöse Injektion mit Friend-Virus enthaltendem Mäuseserum infiziert. […] Die Behandlung erfolgte über 10 Tage, beginnend 48 Stunden nach der Infektion. Am 14. Versuchstag wurden die Tiere durch Luxation der Halswirbel getötet und geöffnet. Die Milz wurde entnommen und gewogen. Als Meßparameter der therapeutischen Wirksamkeit wurde das Milzgewicht der behandelten Tiere mit dem der unbehandelten Infektionskontrolle in Relation gesetzt.

[2] = tested on: Friend-Leukämie-Virus; test: Friend leukaemia virus (FLV) infection in the mouse, i.p. application (Tabelle I); format: in vivo, Maus; settings: for rel. Milzgewicht: NMRI mice, treatment over 10 days starting 48 h after infection, spleen weighed day 14; for n* Anzahl überlebende Mäuse: groups of 10 mice
Text: Blockierung der Reverse Transkriptase-(RT)-Aktivität untersucht wird, erscheint die Wahl eines solchen Ersatzmodelles gerechtfertigt. Im vorliegenden Fall wurde die Infektion der Maus mit dem Friend-Leukämie-Virus gewählt. Dazu wurden normale Labormäuse (NMRI = Naval Medical Research Institute) durch intravenöse Injektion mit Friend-Virus enthaltendem Mäuseserum infiziert. Bei den unbehandelten Kontrolltieren entwickelte sich als Symptom der Infektion innerhalb von 2 Wochen eine deutliche Vergrößerung von Milz und Leber. Die Behandlung erfolgte über 10 Tage, beginnend 48 Stunden nach der Infektion. Am 14. Versuchstag wurden die Tiere durch Luxation der Halswirbel getötet und geöffnet. Die Milz wurde entnommen und gewogen. Als Meßparameter der therapeutischen Wirksamkeit wurde das Milzgewicht der behandelten Tiere mit dem der unbehandelten Infektionskontrolle in Relation gesetzt.
Während bei uninfizierten ausgewachsenen Labormäusen (20 - 24 g Körpergewicht) die Milz etwa 1 % des Körpergewichtes oder weniger wog, erreichte bei infizierten Tieren die Milz am Ende des Versuchs etwa 10 % des Körpergewichts.
Tabelle I zeigt die Ergebnisse der Wirksamkeitstests bei der Friend-Leukämie-Virusinfektion in der Maus bei intraperitonealer Verabreichung der erfindungsgemäßen Verbindungen. Als Kontrolle diente eine Gruppe von Mäusen, die unbehandelt blieben.
Zum Vergleich wurde eine weitere Gruppe von Mäusen mit Suramin behandelt. Tabelle I verdeutlicht, daß die erfindungsgemäßen Verbindungen besser wirken als Suramin, bei vergleichbarer oder geringerer Beeinträchtigung des Hämaglobingehaltes des Blutes. Bei Verabreichung der erfindungsgemäßen Verbindungen überlebten alle Mäuse die Behandlung, wohingegen bei der Verabreichung von Suramin 3 von 10 Mäusen starben. Weiterhin war der Behandlungserfolg, erkennbar an der Verringerung der Milzschwellung, bei Verabreichung aller getesteten Verbindungen größer als bei der Verabreichung von Suramin.

[3] = Qualitative solubility noted in the preparation examples; format: physicochemical
[4] = 0.05 mg/ml in drinking water, oral (10 x 0.17-0.18 mg/Maus)
[5] = 0.10 mg/ml in drinking water, oral (10 x 0.33-0.36 mg/Maus)
[6] = 0.50 mg/ml in drinking water, oral (10 x 1.67-1.77 mg/Maus)

Row | SMILES | n* Anzahl überlebende Mäuse ([1]; 0.05 mg/ml in drinking water) | n* Anzahl überlebende Mäuse ([1]; 0.10 mg/ml in drinking water) | rel. Milzgewicht ([2]; 10 x 0.1 mg/Maus i.p.) | rel. Milzgewicht ([2]; 10 x 1.0 mg/Maus i.p.) | rel. Milzgewicht [1, 4] | rel. Milzgewicht [1, 5] | rel. Milzgewicht [1, 6] | also measured
1 | Cc1cn([C@H]2C[C@H](N=[N+]=[N-])[C@@H](CO)O2)c(=O)[nH]c1=O [AZT, Azidothymidin, reference compound] | 10 | 10 | – | – | – | – | – | Hg ([1]; 0.05 mg/ml in drinking water): 14.1 g/%; Hg ([1]; 0.10 mg/ml in drinking water): 12.7 g/%
2 | c1cc(CSc2ncnc3[nH]cnc23)ccn1 [Präparat 1, 6-(4-pyridylmethyl)-mercaptopurin] | 10 | 10 | 5.23 ± 2.69 % Körpergewicht | 2.08 ± 0.44 % Körpergewicht | 7.01 ± 2.99 % Körpergewicht | 4.80 ± 2.74 % Körpergewicht | 1.66 ± 1.25 % Körpergewicht | n* Anzahl überlebende Mäuse ([2]; 10 x 0.1 mg/Maus i.p.): 10; n* Anzahl überlebende Mäuse ([2]; 10 x 1.0 mg/Maus i.p.): 10; Hg ([2]; 10 x 1.0 mg/Maus i.p., haemoglobin content of blood): 13.2 g/ %; n* Anzahl überlebende Mäuse ([1]; 0.50 mg/ml in drinking water): 10; Hg ([1]; 0.50 mg/ml in drinking water): 11.3 g/%; Löslichkeit in Wasser ([3]; free base): unlöslich; Löslichkeit in allen säurehaltigen Flüssigkeiten ([3]; free base): gut löslich
3 | C=CCSc1ncnc2[nH]cnc12 [Präparat 3, 6-(2-propenyl)-mercaptopurin] | – | – | 5.86 ± 1.84 % Körpergewicht | 1.37 ± 0.38 % Körpergewicht | 4.52 ± 2.28 % Körpergewicht | 1.51 ± 1.26 % Körpergewicht | – | Löslichkeit in Alkohol, heißem Wasser und Polyethylenglykol [3]: leicht löslich; Löslichkeit in kaltem Wasser [3]: Schwer löslich
4 | c1cncc(CSc2ncnc3[nH]cnc23)c1 [Präparat 2, 6-(3-Pyridylmethyl)-mercaptopurin] | – | – | 5.46 ± 3.32 % Körpergewicht | 1.84 ± 0.82 % Körpergewicht | 5.76 ± 2.72 % Körpergewicht | 1.46 ± 1.00 % Körpergewicht | 0.90 ±1.12 % Körpergewicht | –
5 | Cc1ccc(C(=O)Nc2ccc(S(=O)(=O)O)c3cc(S(=O)(=O)O)cc(S(=O)(=O)O)c23)cc1NC(=O)c1cccc(NC(=O)Nc2cccc(C(=O)Nc3cc(C(=O)Nc4ccc(S(=O)(=O)O)c5cc(S(=O)(=O)O)cc(S(=O)(=O)O)c45)ccc3C)c2)c1 [Suramin, reference compound] | – | – | – | 4.54 ± 1.86 % Körpergewicht | – | – | – | Mäuse starben ([2]; in vivo, ip): 3; rel. Milzgewicht ([1]; 10 x 1.00 mg/Maus i.p., comparison group within the Tabelle II experiment): 4.50 ± 2.22 % Körpergwicht

— patent EP0350742A1, “6-Merkaptopurines derivatives, their preparation and their use against retrovirus infections” (HOECHST AKTIENGESELLSCHAFT, priority 1988, dated 1990)
